Measured values taken from publication PMC10420963, “Exploring Novel Drug Combinations: The Therapeutic Potential of Selanyl Derivatives for Leishmania Treatment” (Molecules, 2023).
Like-named read-outs stand apart in the source and are kept apart here.

Columns and labels:
[1] = system: L. infantum promastigotes; test: Drug combination (FICI) assay on L. infantum promastigotes; type: cell-based, Leishmania infantum; conditions: for ƩFICI50: 48 h; for ƩFICI: combined with the reference drugs AMB, MIL, and PMN (bound for all three)
Protocol: To determine the nature of the interaction, it is crucial to choose the appropriate doses. Thus, the evaluation of the combination was carried out by a dose–response linear dilution experiment, for which the IC50 value of each substance alone was determined and multiplied by 0.2×, 0.4×, 0.6×, 0.8×, 1×, 1.2×, 1.4×, 1.6×, 1.8×, and 2× times, in order to obtain the different dilutions. […] Compound A6 stood out in this experiment, with synergistic interactions in combination with MIL (ƩFICI = 0.44), borderline synergistic interaction combined with PMN (ƩFICI = 0.54), but without interaction when combined with AMB (ƩFICI = 0.70).
The fractional inhibitory concentration index (FICI) was used to describe the interaction between the lead compounds A4–A6 and A8 with AmB, PMN and MIL. The compounds were studied in vitro against L. infantum promastigotes after 48 h of treatment. For this purpose, different increasing concentration ratios (0.2×, 0.4×, 0.6×, 0.8×, 1×, 1.2×, 1.4×, 1.6×, 1.8× and 2× times the IC50 of the compounds) were established. Finally, synergy was defined as FICI < 0.5, non-interaction as 0.5 < FICI < 4, and antagonism as FICI > 4. FICI values were obtained from four independent experiments.

[2] = system: L. infantum promastigotes; test: Leishmanicidal activity against L. infantum promastigotes (MTT assay); type: cell-based, Leishmania infantum
Protocol: (§1) Promastigotes. L. major (clone VI, MHOM/IL/80) and L. infantum (clone, BCN-150) parasites were cultured at 26 °C under continuous shaking in M199 1× medium (Sigma, St. Louis, MO, USA) supplemented with heat-inactivated fetal bovine serum (FBS), 25 mM HEPES (pH 7), 0.1 mM adenine, 0.0005% (w/v) haemin, […], 0.0005% (w/v) biotin, 100 IU/mL penicillin and […]. For each experiment, the culture medium was changed everyday in order to achieve parasite in exponential growth phase.
(§2) In order to determine the leishmanicidal activity of the compounds obtained in this study, promastigotes of L. major and L. infantum strains were seeded in 96-well plates (3 ×·10^6 parasite/mL) in exponential growth phase at increasing concentrations (1–500 μM) of the compounds and maintained at 26 °C. After 48 h of incubation, the IC50 was determined by MTT assay. The absorbance was measured in a MultiskanEX photometric plate reader for microplates at 540 nm. Data were obtained from three independent experiments performed in triplicate.

[3] = Cytotoxicity in PMA-differentiated THP-1 macrophages (MTT assay); type: cell-based; conditions: human, pH 7.2, 48 h of treatment, read-out: THP-1 Cells CC50
Protocol: Human monocytic leukemia cell line THP-1 cells were cultured in RMPI 1640 medium (Gibco, Leiden, The Netherlands) supplemented with 10% heat-inactivated FBS, 5% penicillin/streptomycin, 1 mM HEPES, 2 mM glutamine at pH 7.2 at 36 °C and 5% CO2.
THP-1 cells were seeded at a concentration of 8 × 10^5 cells/mL in 96-well plates and incubated for 24 h with phorbol 12-myristate 13-acetate (PMA) (10 ng/mL) supplemented RPMI 1640 (Gibco, Leiden, The Netherlands). After 24 h, the culture medium was removed, and the cells were treated with the synthesized compounds at different concentrations ranging from 1–500 μM at 37 °C and 5% CO2. After this time, the MTT assay was performed. The cytotoxic concentration values (CC50) were obtained by fitting the data to a sigmoid dose-inhibition curve using GraphPad Prism 7.0 software (GraphPad Software Inc., San Diego, CA, USA). MIL and PMN were used as reference drugs for comparison.

L. major promastigotes = test: Leishmanicidal activity against L. major promastigotes (MTT assay); type: cell-based, Leishmania major; conditions: for IC50: Leishmania major, L. major promastigotes, 48 h incubation, MTT
Protocol: as §1, §2

[4] = Leishmania infantum, 48 h, L. infantum promastigotes, 48 h incubation, MTT, compound alone, read-out: IC50

| SMILES | Effect ([1]; combination with AmB) | ƩFICI50 ([1]; combination with AmB) | Effect ([1]; combination with MIL) | ƩFICI50 ([1]; combination with MIL) | Effect ([1]; combination with PMN) | ƩFICI50 ([1]; combination with PMN) | IC50 [2, 4] | CC50 at 48 h [3] | IC50 (L. major promastigotes) | other results |
| --- | --- | --- | --- | --- | --- | --- | --- | --- | --- | --- |
| CCCCCCC(=O)[Se]CC(=O)O [A4, 2-(heptanoylselanyl)acetic acid] | Non interaction (non-interaction as 0.5 < FICI < 4) | 0.71 | Non interaction (non-interaction as 0.5 < FICI < 4) | 0.68 | Non interaction (non-interaction as 0.5 < FICI < 4) | 0.68 | < 40 µM | 173 ± 8.6 µM |  | ƩFICI [1]: > 0.60 |
| O=C(O)C[Se]C(=O)C1CC1 [A5, 2-((cyclopropanecarbonyl)selanyl)acetic acid] | Non interaction (non-interaction as 0.5 < FICI < 4) | 0.70 | Non interaction (non-interaction as 0.5 < FICI < 4) | 0.98 | Non interaction (non-interaction as 0.5 < FICI < 4) | 0.61 | < 40 µM | 211 ± 9.3 µM | 113 µM | ƩFICI [1]: > 0.60 |
| O=C(O)C[Se]C(=O)C1CCC1 [A6, 2-((cyclobutanecarbonyl)selanyl)acetic acid] | Non interaction (non-interaction as 0.5 < FICI < 4) | 0.70 | Synergy (synergy was defined as FICI < 0.5) | 0.44 | Non interaction (non-interaction as 0.5 < FICI < 4) | 0.54 |  | 178 ± 10.2 µM |  | fold more selective than MIL ([2]; L. infantum, from SI values): 28 fold; fold more selective than PMN ([2]; L. infantum, from SI values): 5 fold; times more selective than MIL (L. major promastigotes; L. major, from SI values): 15; times more selective than PMN (L. major promastigotes; L. major, from SI values): 5 |
| O=C(O)C[Se]C(=O)C1CCCCC1 [A8, 2-((cyclohexanecarbonyl)selanyl)acetic acid] | Non interaction (non-interaction as 0.5 < FICI < 4) | 0.52 | Synergy (synergy was defined as FICI < 0.5) | 0.40 | Non interaction (non-interaction as 0.5 < FICI < 4) | 0.52 | < 40 µM | 147 ± 12.5 µM |  | IC50 ([2]; L. infantum promastigotes, 48 h incubation, MTT, compound alone, read-out: IC50): 39.9 µM |
| O=C(O)CSC(=O)C1CC1 [B5, 2-((cyclopropanecarbonyl)thio)acetic acid] |  |  |  |  |  |  | 87.6 µM |  |  |  |
| CCCCCCC(=O)[Se]CC(=O)OC [C4, Methyl 2-(heptanoylselanyl)acetate] |  |  |  |  |  |  |  |  |  | IC50 ([2]; Leishmania infantum, 48 h): 116 µM |
| CCCCCCC(=O)SCC(=O)OC [D4, Methyl 2-(heptanoylthio)acetate] |  |  |  |  |  |  | 79.2 µM |  | 87.3 µM |  |
| COC(=O)CSC(=O)C1CC1 [D5, Methyl 2-((cyclopropanecarbonyl)thio)acetate] |  |  |  |  |  |  | 68.7 µM |  | 81.8 µM |  |
| COC(=O)CSC(=O)C1CCC1 [D6, Methyl 2-((cyclobutanecarbonyl)thio)acetate] |  |  |  |  |  |  | 95.3 µM |  | 83.4 µM |  |
| CCCCCCCCCCCCCCCCOP(=O)([O-])OCC[N+](C)(C)C [MIL, miltefosine, reference compound] |  |  |  |  |  |  | 31.9 µM | 13.3 ± 2.8 µM |  |  |
| NC[C@@H]1O[C@H](O[C@H]2[C@@H](O)[C@H](O[C@@H]3[C@@H](O)[C@H](N)C[C@H](N)[C@H]3O[C@H]3O[C@H](CO)[C@@H](O)[C@H](O)[C@H]3N)O[C@@H]2CO)[C@H](N)[C@@H](O)[C@@H]1O [PMN, paromomycin, reference compound] |  |  |  |  |  |  |  | 39 ± 13.7 µM |  |  |
